# Results: US5387671A, “Hexa- and heptapeptide anaphylatoxin-receptor ligands” (Abbott Laboratories, priority 1990, dated 1995)
# Numbered stars: 1 amine (or outer) side, 2 acyl side, 3 side chain; on linkers, the order of the positions; unused ones are H or OH. Square brackets hold non-standard residues; d marks the D form. Peptide text beside a SMILES is read from it. * marks the point of attachment. X1 = N=C(N)NCCC[C@@H](NC[C@H](Cc1ccccc1)N*)C(=O)O; X4 = NCCCC[C@@H](CN1CCC[C@H]1C(=O)[*:2])N[*:1]; X2 = CN(CCCCC(Cc1ccccc1)C(=O)[*:2])[*:1]; X3 = CN(C(CCCc1ccccc1)C(=O)[*:2])[*:1]; d(β3hF) = N[C@@H](CC(=O)O)Cc1ccccc1; NMeCha = CN[C@@H](CC1CCCCC1)C(=O)O; NMeF = CN[C@@H](Cc1ccccc1)C(=O)O; NMeGABA = CN(CCCC(=O)[*:2])[*:1]; Cha = N[C@@H](CC1CCCCC1)C(=O)O; dCha = N[C@H](CC1CCCCC1)C(=O)O; NMeA = CN[C@@H](C)C(=O)O; Nle = CCCC[C@H](N)C(=O)O; Aze = O=C(O)[C@@H]1CCN1; Ahx = NCCCCCC(=O)O; βAla = NCCC(=O)O; Sar = CNCC(=O)O
# Target: T1, C5a Receptor (Homo sapiens, UniProt P21730)
# T1 construct: 2.5-25 ug/mL of purified PMNL membrane fragments; endogenous in cells; host or cells: PMNL (polymorphonuclear leukocytes), purified membrane fragments
# T1 sequence (P21730 1-350): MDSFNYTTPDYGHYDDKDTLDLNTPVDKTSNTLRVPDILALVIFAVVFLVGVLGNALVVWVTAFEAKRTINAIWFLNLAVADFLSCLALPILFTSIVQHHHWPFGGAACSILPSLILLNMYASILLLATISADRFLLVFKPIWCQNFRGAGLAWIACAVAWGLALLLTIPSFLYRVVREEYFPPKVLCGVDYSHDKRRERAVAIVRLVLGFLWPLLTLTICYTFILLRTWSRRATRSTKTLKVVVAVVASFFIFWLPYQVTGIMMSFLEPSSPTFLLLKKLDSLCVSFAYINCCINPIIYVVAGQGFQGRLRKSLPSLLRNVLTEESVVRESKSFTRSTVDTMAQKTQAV
# Assay: Anaphylatoxin Receptor Binding Ki Determination (inhibition of 125I-C5a binding to PMNL membrane fragments)
# Settings: 0.03-1 nM 125I-C5a; 2.5-25 ug/mL purified PMNL membrane fragments; filtration; read-out: In vitro C5a Receptor Binding Potency Ki
# From the text: Free and membrane-bound ligand were separated by filtration.
row,SMILES,Ki [nM]
1,"CN[C@@H](Cc1ccccc1)C(=O)N[C@@H](CCCCN)C(=O)N1CCC[C@H]1C(=O)N[C@H](CC1CCCCC1)C(=O)N[C@@H](Cc1ccccc1)C(C)N[C@@H](CCCNC(=N)N)C(=O)O (mixture of isomers) [Example 143, (N-Methyl)Phenylalanyl-Lysyl-Prolyl-{(2R)-2-Amino-3-cyclohexylpropanoyl}-Phenylalanyl-.PSI.{(R/S)CH(CH3)NH}-Arginyl-OH]",4200
2,"CN[C@@H](Cc1ccccc1)C(=O)N[C@@H](CCCCN)C(=O)N1CCC[C@H]1C(=O)N[C@H](CC1CCCCC1)C(=O)N[C@H](CN[C@H](CCCNC(=N)N)C(=O)O)Cc1ccccc1 [Example 2, (N-Methyl)Phenylalanyl-Lysyl-Prolyl-{(2R)-2-Amino-3-cyclohexylpropanoyl}-Phenylalanyl-.PSI.(CH2 NH)-DArginyl-OH] (H-[NMeF]KP[dCha]-X1)",1000
3,"CC(C)C[C@H](NC(=O)[C@H](CCC(N)=O)NC(=O)CCCCCNC(=O)[C@@H](N)Cc1c[nH]cn1)C(=O)NCC(=O)N[C@@H](CCCNC(=N)N)C(=O)O [Example 4, H-Histidyl-{6-Aminohexanoyl}-Glutaminyl-Leucyl-Glycyl-Arginyl-OH] (H-H[Ahx]QLGR-OH)",180000
4,"CC(C)C[C@H](NC(=O)[C@H](CC1CCCCC1)NC(=O)CCNC(=O)[C@H](CCCCN)NC(=O)[C@@H](N)Cc1ccccc1)C(=O)N[C@H](C)C(=O)N[C@@H](CCCNC(=N)N)C(=O)O [Example 7, H-Phenylalanyl-Lysyl-{3-Aminopropanoyl}-{(2S)-2-Amino-3-cyclohexylpropanoyl}-Leucyl-DAlanyl-Arginyl-OH] (H-FK[βAla][Cha]L[dA]R-OH)",2200
5,"C[C@H](NC(=O)[C@H](CCCCN)NC(=O)[C@@H](N)Cc1ccccc1)C(=O)N[C@@H](CC1CCCCC1)C(=O)NCCCCCC(=O)N[C@@H](CCCNC(=N)N)C(=O)O [Example 10, H-Phenylalanyl-Lysyl-Alanyl-{(2S)-2-Amino-3-cyclohexylpropanoyl}-{6-Aminohexanoyl}-Arginyl-OH] (H-FKA[Cha][Ahx]R-OH)",85000
6,"CC(C)C[C@H](NC(=O)[C@H](CC1CCCCC1)NC(=O)[C@H](C)N(C)C(=O)[C@H](CCCCN)NC(=O)[C@@H](N)Cc1ccccc1)C(=O)N[C@H](C)C(=O)N[C@@H](CCCNC(=N)N)C(=O)O [Example 17, H-Phenylalanyl-Lysyl-(N-Methyl)Alanyl-{(2S)-2-Amino-3-cyclohexylpropanoyl}-Leucyl-DAlanyl-Arginyl-OH] (H-FK[NMeA][Cha]L[dA]R-OH)",2500
7,"C[C@H](NC(=O)[C@H](CCCCN)NC(=O)[C@@H](N)Cc1ccccc1)C(=O)N[C@@H](CC1CCCCC1)C(=O)NCCC(=O)N[C@H](CCCNC(=N)N)C(=O)O [Example 19, H-Phenylalanyl-Lysyl-Alanyl-{(2S)-2-Amino-3-cyclohexylpropanoyl}-{3-Aminopropanoyl}-DArginyl-OH] (H-FKA[Cha][βAla][dR]-OH)",130000
8,"CN[C@@H](Cc1ccccc1)C(=O)N[C@@H](CCCCN)C(=O)N(C)[C@@H](C)C(=O)N[C@H](CC1CCCCC1)C(=O)N[C@@H](CC1CCCCC1)C(=O)N[C@H](CCCNC(=N)N)C(=O)O [Example 34, (N-Methyl)Phenylalanyl-Lysyl-(N-Methyl)Alanyl-{(2R)-2-Amino-3-cyclohexylpropanoyl}-{(2S)-2-Amino-3-cyclohexylpropanoyl}-DArginyl-OH] (H-[NMeF]K[NMeA][dCha][Cha][dR]-OH)",34
9,"C[C@H](NC(=O)[C@H](CCCCN)NC(=O)[C@@H](N)Cc1ccccc1)C(=O)N[C@H](CC1CCCCC1)C(=O)N(C)[C@@H](CC1CCCCC1)C(=O)N[C@H](CCCNC(=N)N)C(=O)O [Example 40, H-Phenylalanyl-Lysyl-Alanyl-{(2R)-2-Amino-3-cyclohexylpropanoyl}-{(N-Methyl)(2S)-2-Amino-3cyclohexylpropanoyl}-DArginyl-OH] (H-FKA[dCha][NMeCha][dR]-OH)",590
10,"N=C(N)NCCC[C@@H](NC(=O)[C@H](CC1CCCCC1)NC(=O)[C@@H](CC1CCCCC1)NC(=O)[C@@H]1CCN1C(=O)[C@H](CCCCN)NC(=O)[C@@H](N)Cc1ccccc1)C(=O)O [Example 43, H-Phenylalanyl-Lysyl-{(2S)-Azetidine-2-carbonyl}-{(2R)-2-Amino-3-cyclohexylpropanoyl}-{(2S)-2-Amino-3-cyclohexylpropanoyl}-DArginyl-OH] (H-FK[Aze][dCha][Cha][dR]-OH)",23
11,"CN(CC(=O)N[C@H](CC1CCCCC1)C(=O)N[C@@H](CC1CCCCC1)C(=O)N[C@H](CCCNC(=N)N)C(=O)O)C(=O)[C@H](CCCCN)NC(=O)[C@@H](N)Cc1ccccc1 [Example 56, H-Phenylalanyl-Lysyl-Sarcosyl-{(2R)-2-Amino-3-cyclohexylpropanoyl}-{(2S)-2-Amino-3-cyclohexylpropanoyl}-DArginyl-OH] (H-FK[Sar][dCha][Cha][dR]-OH)",14
12,"CN[C@@H](Cc1ccccc1)C(=O)N[C@@H](CCCCN)C(=O)N(C)[C@@H](Cc1ccccc1)C(=O)N[C@H](CC1CCCCC1)C(=O)N[C@@H](CC1CCCCC1)C(=O)N[C@H](CCCNC(=N)N)C(=O)O [Example 61, (N-Methyl)Phenylalanyl-Lysyl-(N-Methyl)Phenylalanyl-{(2R)-2-Amino-3-cyclohexylpropanoyl}-{(2S)-2-Amino-3-cyclohexylpropanoyl}-DArginyl-OH] (H-[NMeF]K[NMeF][dCha][Cha][dR]-OH)",220
13,"CCCC[C@H](NC(=O)[C@H](Cc1ccccc1)NC)C(=O)N(C)[C@@H](C)C(=O)N[C@H](CC1CCCCC1)C(=O)N[C@@H](CC1CCCCC1)C(=O)N[C@H](CCCNC(=N)N)C(=O)O [Example 62, (N-Methyl)Phenylalanyl-Norleucyl-(N-Methyl)Alanyl-{(2R)-2-Amino-3-cyclohexylpropanoyl}-{(2S)-2-Amino-3-cyclohexylpropanoyl}-DArginyl-OH] (H-[NMeF][Nle][NMeA][dCha][Cha][dR]-OH)",260
14,"CN[C@@H](Cc1ccccc1)C(=O)N[C@@H](CCCCN)CN1CCC[C@H]1C(=O)N[C@H](CC1CCCCC1)C(=O)N[C@@H](CC1CCCCC1)C(=O)N[C@H](CCCNC(=N)N)C(=O)O [Example 79, (N-Methyl)Phenylalanyl-Lysyl-.PSI.{CH2 NH}-Prolyl-{(2R)-2-Amino-3-cyclohexylpropanoyl}-{(2S)-2-Amino-3-cyclohexylpropanoyl}-DArginyl-OH] (H-[NMeF][X4][dCha][Cha][dR]-OH)",14500
15,CN[C@@H](Cc1ccccc1)C(=O)N[C@@H](CCCCN)C(=O)N1CCC[C@H]1CN[C@H](CC1CCCCC1)C(=O)N[C@@H](Cc1ccccc1)C(=O)N[C@H](CCCNC(=N)N)C(=O)O [Example 103],360
16,"CN[C@@H](Cc1ccccc1)C(=O)N[C@@H](CCCCN)C(=O)N(C)CCCC(=O)N[C@@H](Cc1ccccc1)C(=O)N[C@H](CCCNC(=N)N)C(=O)O [Example 121, (N-Methyl)Phenylalanyl-Lysyl-{4-(Methylamino)butanoyl}-Phenylalanyl-DArginyl-OH] (H-[NMeF]K[NMeGABA]F[dR]-OH)",21000
17,CN[C@@H](Cc1ccccc1)C(=O)N[C@@H](CCCCN)C(=O)N(C)CCCCC(Cc1ccccc1)C(=O)N[C@@H](Cc1ccccc1)C(=O)N[C@H](CCCNC(=N)N)C(=O)O (stereo partly shown) [Example 134] (H-[NMeF]K[X2]F[dR]-OH),6800
18,"CN[C@@H](Cc1ccccc1)C(=O)N[C@@H](CCCCN)C(=O)N(C)C(CCCc1ccccc1)C(=O)N[C@H](CC1CCCCC1)C(=O)N[C@@H](Cc1ccccc1)C(=O)N[C@H](CCCNC(=N)N)C(=O)O (stereo partly drawn) [Example 156, (N-Methyl)Phenylalanyl-Lysyl-{(2R/S)-2-Methylamino-5-phenylpentanoyl}-{(2R)-2-Amino-3-cyclohexylpropanoyl}-Phenylalanyl-DArginyl-OH] (H-[NMeF]K[X3][dCha]F[dR]-OH)",660
19,"CN[C@@H](Cc1ccccc1)C(=O)N[C@@H](CCCCN)C(=O)N1CCC[C@H]1C(=O)N[C@H](CC1CCCCC1)C(=O)N[C@@H](Cc1ccccc1)C(=O)N[C@@H](CC(=O)O)Cc1ccccc1 [Example 170, (N-Methyl)Phenylalanyl-Lysyl-Prolyl-{(2R)-2-Amino-3-cyclohexylpropanoyl}-Phenylalanyl-{(3R)-Amino-4-phenylbutanoic acid}] (H-[NMeF]KP[dCha]F[d(β3hF)]-OH)",2600
